What was measured:
[1] = test system: CD14 protein; assay: Western blot of keratinocyte extracts; format: cell-based, human
Description: Western Blot. […] After centrifugation, equal amounts of protein were mixed with loading buffer (0.25M Tris HCL, 10% SDS, 10% glycerol, 5% β-mercaptoethanol) and loaded onto a 10% Tris-Tricine gel (GeneMate, Kaysville, Utah). After separation, proteins were blotted onto a PVDF membrane (Millipore, Billerica, Mass.) and blocked in 5% milk (BioRad) in TBS 0.1% Tween20 for 1 h at RT. After washings in TBS 0.1% Tween20, membranes were stained with a rabbit polyclonal anti-CD14 (Abcam, Cambridge, Mass.) or an anti TLR2 antibody (eBioscience), washed again in TBS 0.1% Tween20 and reprobed with a HRP-coupled goat anti-rabbit antibody (DakoCytomation, Glostrup, Denmark). Stained protein was visualized using the Western Lightning® system (Perkin Elmer, Boston, Mass.).

[2] = Topical treatment of healthy volunteers' skin, clinical and histological inflammation; format: in vivo, human; conditions: single topical application of 1,25D3
Description: Patients and treatments. Human skin wounds were collected following informed consent by inducing 5 mm full-thickness wounds in volunteers (n=5) under aseptic conditions with local anesthesia as described. At 24 hours after incision, 4 mm punch biopsies were taken from the site of injury and immediately fixed in formalin for immunostaining or frozen in liquid N2 for subsequent RNA isolation. Intact skin from healthy volunteers served as control (n=4). To examine the effects of topical 1,25D3, healthy skin of volunteers (n=7) was treated once topically with 1,25D3 (1.0 mM) and left under occlusion for 4 days. Vehicle treated contralateral skin served as a control. After treatment, skin biopsies were obtained from both sites, fixed in formalin 10% and embedded in paraffin for immunostaining. All treatments and sample acquisitions, including skin biopsies, were approved by the committees on investigations involving human subjects.

[3] = test system: Other TLRs and the TLR coreceptor CD36; assay: qPCR of other TLRs and CD36 in cultured keratinocytes; format: cell-based; conditions: cultured human keratinocytes exposed to 1,25D3
Description: Cell culture and stimuli. Human keratinocytes were grown in serum-free EpiLife® cell culture media (Cascade Biologics; Portland, Oreg.) containing 0.06 mM Ca2+ and 1× EpiLife® defined growth supplement (EDGS) at 37° C. under standard tissue culture conditions. Stock cultures were maintained for up to five passages in this media with the addition of 50 U/mL penicillin and 50 μg/mL streptomycin. HaCaT keratinocytes were cultured in DMEM (Sigma, St. Louis, Mo.) with 10% FCS. Cells at 50-70% confluence were stimulated in fresh medium after preincubation with 1,25(OH)2 vitamin D3 (1,25D3; 0.1-100 nM, 4-24 h; Sigma). Alternatively, NHEK were stimulated in the presence of 1,25D3 (0.1-100 nM). […]
Real-time RT-PCR (qPCR). […] Expression of cathelicidin and GAPDH was analysed by real-time RT-PCR. […] Fold induction relative to the vehicle treated control in in vitro experiments was calculated using the comparative Ct method, where ΔΔCt is ΔCt(stimulant)-ΔCt(vehicle), ΔCt is Ct(gene)-Ct(GAPDH) and Ct is the cycle at which an arbitrary detection threshold is crossed. For quantification of transcript abundance in tissue samples target gene expression was normalized to GAPDH and compared to non-treated or non-injured skin.

[4] = test system: TLR2; assay: qPCR of TLR2 mRNA in cultured keratinocytes; format: cell-based, human; conditions: 1,25D3 100 nM, keratinocyte monolayers, 24 hours
Description: Cell culture and stimuli. Human keratinocytes were grown in serum-free EpiLife® cell culture media (Cascade Biologics; Portland, Oreg.) containing 0.06 mM Ca2+ and 1× EpiLife® defined growth supplement (EDGS) at 37° C. under standard tissue culture conditions. Stock cultures were maintained for up to five passages in this media with the addition of 50 U/mL penicillin and 50 μg/mL streptomycin. HaCaT keratinocytes were cultured in DMEM (Sigma, St. Louis, Mo.) with 10% FCS. Cells at 50-70% confluence were stimulated in fresh medium after preincubation with 1,25(OH)2 vitamin D3 (1,25D3; 0.1-100 nM, 4-24 h; Sigma). Alternatively, NHEK were stimulated in the presence of 1,25D3 (0.1-100 nM). Stimuli included TLR2,6 ligands Malp-2 (0.001-0.5 μg/ml; Alexis Biochemicals, Carlsbad, Calif.), FSL-1 (1-2 μg/ml, Invivogen, San Diego, Calif.) and zymosan (50 μg/ml; Invivogen), as well as flagellin (50 ng/ml; Alexis), LPS (1 μg/ml; Sigma), lipoteichoic acid (LTA; 10 μg/ml; Sigma), 19 kDA lipopeptide (10 μg/ml, a kind gift from S. Krutzik, Division of Dermatology, UCLA), CpG DNA (10 μg/ml; Sigma), Ca2+ (1.7 mM), LPS (1 μg/ml; Sigma), TNFα (20 ng/ml; Chemicon Temecula, Calif.) and TGFβ1 (0.1-1 μg/ml; R&D Systems, Minneapolis, Minn.). A TLR2 blocking antibody (αTLR2; clone TL2.1, 5 μg/ml, eBioscience, San Diego, Calif.) was utilized to investigate the role of TLR2 signaling. Furthermore, keratinocytes were pretreated with a vitamin D receptor antagonist (VDR-antagonist ZK159222 Schering AG; 10^-7M) or the CYP inhibitor itraconazole (ITRA; 10^-7M) before stimulation with TGFβ in the presence of 25OH vitamin D3 (25D3, 10 nM, Sigma).
Real-time RT-PCR (qPCR). RNA was extracted from cells, epidermal constructs or tissue using Trizol® and 1 μg RNA was reverse transcribed using iScript® (BioRad, Hercules, Calif.). Expression of cathelicidin and GAPDH was analysed by real-time RT-PCR. Predeveloped Taqman® assay probes (ABI, Foster City, Calif.) were used for the analyses of the expression of CYP24A1 (24-hydroxylase), CYP27B1 (1α-hydroxylase), CD14, CD36, TLR1, TLR2, TLR4, TLR6 and murine CD14. All analyses were performed in triplicate from 2-5 independent experiments in an ABI Prism® 7000 Sequence Detection System. Fold induction relative to the vehicle treated control in in vitro experiments was calculated using the comparative Ct method, where ΔΔCt is ΔCt(stimulant)-ΔCt(vehicle), ΔCt is Ct(gene)-Ct(GAPDH) and Ct is the cycle at which an arbitrary detection threshold is crossed. For quantification of transcript abundance in tissue samples target gene expression was normalized to GAPDH and compared to non-treated or non-injured skin.

[5] = test system: TLR2 protein; assay: Western blot of keratinocyte extracts; format: cell-based, human; conditions: 1,25D3 100 nM, monolayer keratinocyte extracts
Description: Western Blot. Primary keratinocytes were stimulated with 1,25D3 (100 nM) or the vehicle for 24 hours and subsequently lysed in ice-cold lysis buffer (1% Triton-X in PBS containing proteinase inhibitors). After centrifugation, equal amounts of protein were mixed with loading buffer (0.25M Tris HCL, 10% SDS, 10% glycerol, 5% β-mercaptoethanol) and loaded onto a 10% Tris-Tricine gel (GeneMate, Kaysville, Utah). After separation, proteins were blotted onto a PVDF membrane (Millipore, Billerica, Mass.) and blocked in 5% milk (BioRad) in TBS 0.1% Tween20 for 1 h at RT. After washings in TBS 0.1% Tween20, membranes were stained with a rabbit polyclonal anti-CD14 (Abcam, Cambridge, Mass.) or an anti TLR2 antibody (eBioscience), washed again in TBS 0.1% Tween20 and reprobed with a HRP-coupled goat anti-rabbit antibody (DakoCytomation, Glostrup, Denmark). Stained protein was visualized using the Western Lightning® system (Perkin Elmer, Boston, Mass.).

## C=C1/C(=C\C=C2/CCC[C@]3(C)[C@@H]([C@H](C)CCCC(C)(C)O)CC[C@@H]23)C[C@@H](O)C[C@@H]1O [1,25D3, 1,25(OH)2 vitamin D3]
[1]; 1,25D3 100 nM, monolayer keratinocyte extracts
  CD14 protein expression (Western blot): increases expression
[1]; 1,25D3 10^−8M and butyrate 2 mM, 24 hours
  CD14 protein expression (Western blot): increase in CD14 protein expression
[2]
  clinical or histological evidence of inflammation: did not induce clinical or histological evidence of inflammation
[3]
  expression of other TLRs and CD36: remained unchanged
[4]
  TLR2 mRNA expression: increases expression
[5]
  TLR2 protein expression (Western Blot): increases expression

From patent publication US20100273748A1, “ANTIMICROBIAL THERAPY” (priority 2006, published 2010)
